Our source for the Ki values is BindingDB's records for doi:10.1016/S1074-5521(01)00079-5 (State University of New York, 2001).

This test deals with HIV-1 protease (Human immunodeficiency virus, UniProt O90785). Description: Enzyme Inhibition Assay.
HIV-1 protease, sequence (O90785 whole entry): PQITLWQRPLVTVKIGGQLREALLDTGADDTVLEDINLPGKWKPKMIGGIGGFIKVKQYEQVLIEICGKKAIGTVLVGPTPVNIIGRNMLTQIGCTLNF
On to `O=C(NCc1ccccc1)[C@H](Cc1ccccc1)CC(O)C[C@@H](Cc1ccccc1)C(=O)NCc1ccccc1` [Carbinol, 18a], for which the Ki is 3.2 µM. This lies in the single-digit micromolar range.

`O=C(NC1c2ccccc2CC1O)[C@H](Cc1ccccc1)CC(O)C[C@@H](Cc1ccccc1)C(=O)NC1c2ccccc2CC1O` (stereo partly drawn) [Carbinol, 18b] registered a Ki of 0.0038 µM.

Consider `O=C(NCc1ccccc1)[C@H](Cc1ccccc1)C[Si](O)(O)C[C@@H](Cc1ccccc1)C(=O)NCc1ccccc1` [Silanediol, 17a], for which the Ki is 3.2 µM.
